Data set [1] has as its system Escherichia coli (E. coli). As to the kind of experiment: Inhibition zone assay of bacteriostatic activity (GB/T 39101-2020, punching method). In kind it is cell-based. Conditions: FIG. 19, repeated three times. Here is the method: Preparation of a silver nanoparticle sample for control: 0.1 mol/L AgCl was dissolved in 16 mL of an ammonia solution at a mass concentration of 25% with continuous stirring, and an aqueous solution of 0.1 mol/L vitamin C was added dropwise. […] The solution was then filtered, and the precipitate was washed repeatedly with double-distilled water, dispersed in double-distilled water, and freeze-dried for 24 h to afford silver nanoparticles prepared from vitamin C.
Determination of antibacterial activity of polypeptides according to GB/T 39101-2020: Inhibition zone assays in the inhibition zone method evaluate the bacteriostatic activity of test substances. The strain used is Escherichia coli (E. coli) in an ampicillin solution having a concentration of 1.5 mg/mL, using the punching method instead of the “Oxford cup” method to control the sampling areas.

Data set [2] in a line: Inclusion rate of C-β-CD for thymol (UV absorbance at 278 nm). To be noted: thymol/C-β-CD inclusion complex, 40° C. 2 h, freeze-dried. In kind it is physicochemical. Here is the method:
0.656 g of the cationic β-cyclodextrin (C-β-CD) prepared in Example 1 was weighed and added with 10 mL distilled water until completely dissolution. An anhydrous ethanol solution containing 0.075 g thymol (2 mL in total) was added. The mixture was magnetically stirred in a water bath at 40° C. for 2 h. After completion, the mixture was filtered with a 0.45 μm microporous membrane. The resulting solution was freeze-dried for 24 h to afford a thymol/C-β-CD inclusion complex.
15 mg of analytically pure thymol was weighed and dissolved in anhydrous ethanol, and the volume was adjusted to 10 mL to prepare a 1500 mg/L stock solution. A proper amount of the stock solution was taken and diluted with anhydrous ethanol into a series of standard solutions at a concentration of 50, 40, 30, 20, and 10 mg/L. In the optimal absorption wavelength, an absorbance A of the above series of standard solutions was determined. A standard curve was drawn with a thymol concentration (mg/L) as an abscissa and A as an ordinate.
0.1 g of the thymol/C-β-CD inclusion complex as prepared above was weighed and added into a 25 mL volumetric flask, added with anhydrous ethanol to dilute to the mark, and sonicated for 30 min. […] The absorbance A of the solution at 278 nm was determined, and taken into the regression equation to calculate the thymol content in the inclusion complex. […]

Data set [3] in a line: Inclusion rate of C-β-CD for cinnamaldehyde (UV absorbance at 287 nm). In kind it is physicochemical. To be noted: saturated aqueous solution method, 45° C. 4 h, freeze-dried. Here is the method: 0.656 g the cationic β-cyclodextrin (C-β-CD) prepared in Example 1 was weighed and added with 10 mL distilled water until completely dissolution. An anhydrous ethanol solution containing 0.066 g cinnamaldehyde was added slowly. The mixture was magnetically stirred in a water bath at 45° C. for 4 h. After completion, the mixture was filtered with a 0.45 μm microporous membrane. The resulting solution was freeze-dried for 24 h to afford a cinnamaldehyde/C-β-CD inclusion complex.
10 mg analytically pure cinnamaldehyde was weighed and dissolved in anhydrous ethanol, and the volume was adjusted to 10 mL to prepare a 1000 mg/L stock solution. A proper amount of the stock solution was taken and diluted with anhydrous ethanol into a series of standard solutions at a concentration of 2, 4, 6, 8, and 10 mg/L. In the optimal absorption wavelength, the absorbance A of the above series of standard solutions was determined. […]
0.01 g of the C-β-CD inclusion complex of cinnamaldehyde was weighed and added into a 25 mL volumetric flask, added with anhydrous ethanol to dilute to the mark, and sonicated for 30 min. […] The absorbance A of the solution was determined at 287 nm and taken into the regression equation to calculate the cinnamaldehyde content in the inclusion complex (see the previous example for the conversion formula).

Consider `O=[N+]([O-])[O-].[Ag+]` [AgNO3, silver nitrate, reference compound], for which the bacteriostatic effect result in data set [1] is recorded as “weak bacteriostatic effect”.

For the molecule cationic β-cyclodextrin [C-β-CD], the “inclusion rate for thymol” value in data set [2] was 63.55%. Besides, the bacteriostatic effect entry in data set [1] is reported as “no bacteriostatic activity”. In addition, the “inclusion rate for cinnamaldehyde” value in data set [3] turned out to be 21.55%.

These data come from patent publication US12220463B2, “Quaternary ammonium cyclodextrin and preparation method and uses thereof, and silver nanoparticle-cyclodextrin complex and preparation method and uses thereof” (Hubei University of Chinese Medicine, priority 2022, dated 2025).
